What was measured:
Type in all cases: biochemical
G9a Y1154A mutant = experiment: Substrate peptide alkylation by G9a-Y1154A with SAM analogues; details: TAMRA-labeled H3K9 peptide; MALDI-MS
G9a Y1154G mutant = experiment: Substrate peptide benzylation by G9a-Y1154G
Y372G mutant of Suv39H2 = experiment: Benzylation of substrate peptide and full-length H3 by Suv39H2-Y372G
[1] = system: Suv39H2 mutant / hole-modified CBX1; details: full-length H3 and purified mononucleosomes; Western blot

Nc1ncnc2c1ncn2[C@@H]1O[C@H](C[S+](CC[C@H](N)C(=O)O)Cc2ccccc2)[C@@H](O)[C@H]1O (some centres unmarked) [benzyl-SAM]
substrate modification by G9a-Y1154A (G9a Y1154A mutant): not efficient at incorporating benzyl modification
substrate benzylation by G9a-Y1154G (G9a Y1154G mutant; TAMRA-labeled H3K9 peptide, MALDI-MS): complete substrate benzylation
dibenzylation of substrate by G9a mutant (G9a Y1154G mutant; under our assay conditions, Figure S2): did not observe any dibenzylation
utilization of benzyl-SAM by Suv39H2-Y372G (Y372G mutant of Suv39H2): efficiently utilized benzyl-SAM
H3 signal after enrichment with hole-modified CBX1 [1]: signal for H3 only in the presence of benzyl-SAM
